Assay results taken from ChEMBL document CHEMBL1201861, “Genomics of Drug Sensitity in Cancer screening data, Wellcome Trust Sanger Institute”.

tested on: COLO-800; assay: cells; assay type: functional, cell-based, Homo sapiens; details: Homo sapiens, COLO-800;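 note: growth inhibition of COLO-800 cells, read out with a cell viability assay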
Description: SANGER: Inhibition of human COLO-800 cell growth in a cell viability assay.

Q: How did the IC50 turn out when `Nc1ccccc1NC(=O)c1ccc(CNC(=O)OCc2cccnc2)cc1` [ENTINOSTAT] was run?
A: > 5 µM

tested on: COLO-829; assay: cells; assay type: functional, cell-based, Homo sapiens; details: Homo sapiens, COLO-829
Description: SANGER: Inhibition of human COLO-829 cell growth in a cell viability assay.

Q: With `Nc1ccccc1NC(=O)c1ccc(CNC(=O)OCc2cccnc2)cc1` [ENTINOSTAT] as the compound, how does the IC50 read?
A: 1.54 µM

tested on: CTV-1; assay: cells; assay type: functional, cell-based, Homo sapiens; details: Homo sapiens, CTV-1;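 note: growth inhibition of the cell line, read out with a cell viability assay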
Description: SANGER: Inhibition of human CTV-1 cell growth in a cell viability assay.

Q: With `Nc1ccccc1NC(=O)c1ccc(CNC(=O)OCc2cccnc2)cc1` [ENTINOSTAT] as the compound, how does the IC50 read?
A: 1.27 µM

tested on: CW-2; assay: cells; assay type: functional, cell-based, Homo sapiens; details: Homo sapiens, CW-2;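 note: growth inhibition of CW-2 cells, read out by a cell viability assay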
Description: SANGER: Inhibition of human CW-2 cell growth in a cell viability assay.

Q: For `Nc1ccccc1NC(=O)c1ccc(CNC(=O)OCc2cccnc2)cc1` [ENTINOSTAT], which IC50 is on record?
A: 0.658 µM

tested on: D283 Med; assay: cells; assay type: functional, cell-based, Homo sapiens; details: Homo sapiens, D283 Med
Description: SANGER: Inhibition of human D-283MED cell growth in a cell viability assay.

Q: For `Nc1ccccc1NC(=O)c1ccc(CNC(=O)OCc2cccnc2)cc1` [ENTINOSTAT], which IC50 is on record?
A: > 5 µM

tested on: EKVX; assay: cells; assay type: functional, cell-based, Homo sapiens; details: Homo sapiens, EKVX;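 note: growth inhibition of human EKVX cells, read out with a cell viability assay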
Description: SANGER: Inhibition of human EKVX cell growth in a cell viability assay.

Q: With `Nc1ccccc1NC(=O)c1ccc(CNC(=O)OCc2cccnc2)cc1` [ENTINOSTAT] as the compound, how does the IC50 read?
A: > 5 µM

tested on: ES7; assay: cells; assay type: functional, cell-based, Homo sapiens; details: Homo sapiens, ES7;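 note: growth inhibition of cultured human ES7 cells, read out as cell viability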
Description: SANGER: Inhibition of human ES7 cell growth in a cell viability assay.

Q: Which IC50 does the source give for `Nc1ccccc1NC(=O)c1ccc(CNC(=O)OCc2cccnc2)cc1` [ENTINOSTAT] here?
A: 1.8 µM

tested on: ETK-1; assay: cells; assay type: functional, cell-based, Homo sapiens; details: Homo sapiens, ETK-1;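 note: growth inhibition of human ETK-1 cells, read out with a cell viability assay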
Description: SANGER: Inhibition of human ETK-1 cell growth in a cell viability assay.

Q: With `Nc1ccccc1NC(=O)c1ccc(CNC(=O)OCc2cccnc2)cc1` [ENTINOSTAT] as the compound, how does the IC50 read?
A: 1.79 µM

tested on: EW-18; assay: cells; assay type: functional, cell-based, Homo sapiens; details: Homo sapiens, EW-18; read-out: IC50;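 note: growth inhibition of EW-18 cells, read out by a cell viability assay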
Description: SANGER: Inhibition of human EW-18 cell growth in a cell viability assay.

Q: For `Nc1ccccc1NC(=O)c1ccc(CNC(=O)OCc2cccnc2)cc1` [ENTINOSTAT], which IC50 is on record?
A: > 5 µM

tested on: EOL1; assay: cells; assay type: functional, cell-based, Homo sapiens; details: Homo sapiens, EOL1;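 note: growth inhibition of EoL-1 cells, read out by a cell viability assay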
Description: SANGER: Inhibition of human EoL-1-cell cell growth in a cell viability assay.

Q: How did the IC50 turn out when `Nc1ccccc1NC(=O)c1ccc(CNC(=O)OCc2cccnc2)cc1` [ENTINOSTAT] was run?
A: > 5 µM

tested on: GCIY; assay: cells; assay type: functional, cell-based, Homo sapiens; details: Homo sapiens, GCIY;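 note: growth inhibition of the human GCIY cell line, read out by a cell viability assay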
Description: SANGER: Inhibition of human GCIY cell growth in a cell viability assay.

Q: `Nc1ccccc1NC(=O)c1ccc(CNC(=O)OCc2cccnc2)cc1` [ENTINOSTAT] was tested. Which IC50 did it give?
A: > 5 µM

tested on: HAL-01; assay: cells; assay type: functional, cell-based, Homo sapiens; details: Homo sapiens, HAL-01;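 note: growth inhibition of human HAL-01 cells, read out with a cell viability assay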
Description: SANGER: Inhibition of human HAL-01 cell growth in a cell viability assay.

Q: `Nc1ccccc1NC(=O)c1ccc(CNC(=O)OCc2cccnc2)cc1` [ENTINOSTAT] was tested. Which IC50 did it give?
A: 1.17 µM

tested on: HCC1187; assay: cells; assay type: functional, cell-based, Homo sapiens; details: Homo sapiens, HCC1187;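 note: growth inhibition of HCC1187 cells, read out with a cell viability assay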
Description: SANGER: Inhibition of human HCC1187 cell growth in a cell viability assay.

Q: With `Nc1ccccc1NC(=O)c1ccc(CNC(=O)OCc2cccnc2)cc1` [ENTINOSTAT] as the compound, how does the IC50 read?
A: 4.9 µM

tested on: HCC2218; assay: cells; assay type: functional, cell-based, Homo sapiens; details: Homo sapiens, HCC2218;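 note: cell viability assay read-out, with IC50 given as the concentration that inhibits growth of the cell line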
Description: SANGER: Inhibition of human HCC2218 cell growth in a cell viability assay.

Q: `Nc1ccccc1NC(=O)c1ccc(CNC(=O)OCc2cccnc2)cc1` [ENTINOSTAT] was tested. Which IC50 did it give?
A: 1.17 µM

tested on: HEL; assay: cells; assay type: functional, cell-based, Homo sapiens; details: Homo sapiens, HEL;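 note: growth inhibition of HEL cells, read out with a cell viability assay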
Description: SANGER: Inhibition of human HEL cell growth in a cell viability assay.

Q: How did the IC50 turn out when `Nc1ccccc1NC(=O)c1ccc(CNC(=O)OCc2cccnc2)cc1` [ENTINOSTAT] was run?
A: 0.313 µM

tested on: K562; assay: cells; assay type: functional, cell-based, Homo sapiens; details: Homo sapiens, K562
Description: SANGER: Inhibition of human K-562 cell growth in a cell viability assay.

Q: `Nc1ccccc1NC(=O)c1ccc(CNC(=O)OCc2cccnc2)cc1` [ENTINOSTAT] was tested. Which IC50 did it give?
A: 1.39 µM

tested on: KINGS-1; assay: cells; assay type: functional, cell-based, Homo sapiens; details: Homo sapiens, KINGS-1;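 note: cell viability assay measuring suppression of KINGS-1 cell growth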
Description: SANGER: Inhibition of human KINGS-1 cell growth in a cell viability assay.

Q: With `Nc1ccccc1NC(=O)c1ccc(CNC(=O)OCc2cccnc2)cc1` [ENTINOSTAT] as the compound, how does the IC50 read?
A: 4.31 µM

tested on: KNS-42; assay: cells; assay type: functional, cell-based; details: Homo sapiens;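 note: growth inhibition of KNS-42 cells, read out with a cell viability assay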
Description: SANGER: Inhibition of human KNS-42 cell growth in a cell viability assay.

Q: Which IC50 does the source give for `Nc1ccccc1NC(=O)c1ccc(CNC(=O)OCc2cccnc2)cc1` [ENTINOSTAT] here?
A: > 5 µM

tested on: LB1047-RCC; assay: cells; assay type: functional, cell-based, Homo sapiens; details: Homo sapiens, LB1047-RCC;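 note: inhibition of cell growth, determined with a cell viability assay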
Description: SANGER: Inhibition of human LB1047-RCC cell growth in a cell viability assay.

Q: Which IC50 does the source give for `Nc1ccccc1NC(=O)c1ccc(CNC(=O)OCc2cccnc2)cc1` [ENTINOSTAT] here?
A: 1.63 µM

tested on: LNCaP-Clone-FGC; assay: cells; assay type: functional, cell-based, Homo sapiens; details: Homo sapiens, LNCaP-Clone-FGC
Description: SANGER: Inhibition of human LNCaP-Clone-FGC cell growth in a cell viability assay.

Q: `Nc1ccccc1NC(=O)c1ccc(CNC(=O)OCc2cccnc2)cc1` [ENTINOSTAT] was tested. Which IC50 did it give?
A: > 5 µM

tested on: LU-139; assay: cells; assay type: functional, cell-based, Homo sapiens; details: Homo sapiens, LU-139
Description: SANGER: Inhibition of human LU-139 cell growth in a cell viability assay.

Q: `Nc1ccccc1NC(=O)c1ccc(CNC(=O)OCc2cccnc2)cc1` [ENTINOSTAT] was tested. Which IC50 did it give?
A: 0.335 µM

tested on: MFM-223; assay: cells; assay type: functional, cell-based, Homo sapiens; details: Homo sapiens, MFM-223
Description: SANGER: Inhibition of human MFM-223 cell growth in a cell viability assay.

Q: With `Nc1ccccc1NC(=O)c1ccc(CNC(=O)OCc2cccnc2)cc1` [ENTINOSTAT] as the compound, how does the IC50 read?
A: > 5 µM

tested on: MSTO-211H; assay: cells; assay type: functional, cell-based, Homo sapiens; details: Homo sapiens, MSTO-211H
Description: SANGER: Inhibition of human MSTO-211H cell growth in a cell viability assay.

Q: How did the IC50 turn out when `Nc1ccccc1NC(=O)c1ccc(CNC(=O)OCc2cccnc2)cc1` [ENTINOSTAT] was run?
A: 1.48 µM

tested on: NB10; assay: cells; assay type: functional, cell-based, Homo sapiens; details: Homo sapiens, NB10;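 note: growth inhibition of NB10 cells, read out by a cell viability assay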
Description: SANGER: Inhibition of human NB10 cell growth in a cell viability assay.

Q: How did the IC50 turn out when `Nc1ccccc1NC(=O)c1ccc(CNC(=O)OCc2cccnc2)cc1` [ENTINOSTAT] was run?
A: 2.41 µM

tested on: NCI-H1355; assay: cells; assay type: functional, cell-based, Homo sapiens; details: Homo sapiens, NCI-H1355;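 note: growth inhibition of human NCI-H1355 cells, read out by a cell viability assay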
Description: SANGER: Inhibition of human NCI-H1355 cell growth in a cell viability assay.

Q: How did the IC50 turn out when `Nc1ccccc1NC(=O)c1ccc(CNC(=O)OCc2cccnc2)cc1` [ENTINOSTAT] was run?
A: 2.12 µM

tested on: NCI-H1838; assay: cells; assay type: functional, cell-based, Homo sapiens; details: Homo sapiens, NCI-H1838;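 note: growth inhibition of NCI-H1838 cells, determined with a cell viability readout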
Description: SANGER: Inhibition of human NCI-H1838 cell growth in a cell viability assay.

Q: How did the IC50 turn out when `Nc1ccccc1NC(=O)c1ccc(CNC(=O)OCc2cccnc2)cc1` [ENTINOSTAT] was run?
A: > 5 µM

tested on: NCI-H69; assay: cells; assay type: functional, cell-based, Homo sapiens; details: Homo sapiens, NCI-H69;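 note: growth inhibition of the cell line, read out with a cell viability assay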
Description: SANGER: Inhibition of human NCI-H69 cell growth in a cell viability assay.

Q: For `Nc1ccccc1NC(=O)c1ccc(CNC(=O)OCc2cccnc2)cc1` [ENTINOSTAT], which IC50 is on record?
A: 0.801 µM

tested on: NEC8; assay: cells; assay type: functional, cell-based, Homo sapiens; details: Homo sapiens, NEC8;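 note: growth inhibition of human NEC8 cells, read out by a cell viability assay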
Description: SANGER: Inhibition of human NEC8 cell growth in a cell viability assay.

Q: How did the IC50 turn out when `Nc1ccccc1NC(=O)c1ccc(CNC(=O)OCc2cccnc2)cc1` [ENTINOSTAT] was run?
A: 0.135 µM

tested on: NOMO-1; assay: cells; assay type: functional, cell-based, Homo sapiens; details: Homo sapiens, NOMO-1;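 note: growth inhibition of human NOMO-1 cells measured by a cell viability assay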
Description: SANGER: Inhibition of human NOMO-1 cell growth in a cell viability assay.

Q: `Nc1ccccc1NC(=O)c1ccc(CNC(=O)OCc2cccnc2)cc1` [ENTINOSTAT] was tested. Which IC50 did it give?
A: 0.811 µM

tested on: P30-OHK; assay: cells; assay type: functional, cell-based, Homo sapiens; details: Homo sapiens, P30-OHK;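 note: growth inhibition of the P30-OHK cell line, read out with a cell viability assay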
Description: SANGER: Inhibition of human P30-OHK cell growth in a cell viability assay.

Q: With `Nc1ccccc1NC(=O)c1ccc(CNC(=O)OCc2cccnc2)cc1` [ENTINOSTAT] as the compound, how does the IC50 read?
A: > 5 µM

tested on: QIMR-WIL; assay: cells; assay type: functional, cell-based, Homo sapiens; details: Homo sapiens, QIMR-WIL;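 note: growth inhibition of QIMR-WIL cells, read out with a cell viability assay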
Description: SANGER: Inhibition of human QIMR-WIL cell growth in a cell viability assay.

Q: How did the IC50 turn out when `Nc1ccccc1NC(=O)c1ccc(CNC(=O)OCc2cccnc2)cc1` [ENTINOSTAT] was run?
A: 0.683 µM

tested on: RH-1; assay: cells; assay type: functional, cell-based, Homo sapiens; details: Homo sapiens, RH-1;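 note: growth inhibition of human RH-1 cells, read out with a cell viability assay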
Description: SANGER: Inhibition of human RH-1 cell growth in a cell viability assay.

Q: How did the IC50 turn out when `Nc1ccccc1NC(=O)c1ccc(CNC(=O)OCc2cccnc2)cc1` [ENTINOSTAT] was run?
A: > 5 µM

tested on: RPMI-8226; assay: cells; assay type: functional, cell-based, Homo sapiens; details: Homo sapiens, RPMI-8226
Description: SANGER: Inhibition of human RPMI-8226 cell growth in a cell viability assay.

Q: With `Nc1ccccc1NC(=O)c1ccc(CNC(=O)OCc2cccnc2)cc1` [ENTINOSTAT] as the compound, how does the IC50 read?
A: 3.14 µM

tested on: SCH; assay: cells; assay type: functional, cell-based, Homo sapiens; details: Homo sapiens, SCH;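 note: growth inhibition of human SCH cells, read out in a cell viability assay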
Description: SANGER: Inhibition of human SCH cell growth in a cell viability assay.

Q: For `Nc1ccccc1NC(=O)c1ccc(CNC(=O)OCc2cccnc2)cc1` [ENTINOSTAT], which IC50 is on record?
A: 0.403 µM

tested on: SF-268; assay: cells; assay type: functional, cell-based, Homo sapiens; details: Homo sapiens, SF-268;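 note: growth inhibition of SF-268 cells determined with a cell viability assay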
Description: SANGER: Inhibition of human SF268 cell growth in a cell viability assay.

Q: How did the IC50 turn out when `Nc1ccccc1NC(=O)c1ccc(CNC(=O)OCc2cccnc2)cc1` [ENTINOSTAT] was run?
A: 3.48 µM

tested on: SK-N-DZ; assay: cells; assay type: functional, cell-based, Homo sapiens; details: Homo sapiens, SK-N-DZ; read-out: IC50;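 note: growth inhibition of the cancer cell line, read out through a viability assay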
Description: SANGER: Inhibition of human SK-N-DZ cell growth in a cell viability assay.

Q: `Nc1ccccc1NC(=O)c1ccc(CNC(=O)OCc2cccnc2)cc1` [ENTINOSTAT] was tested. Which IC50 did it give?
A: 1.25 µM

tested on: SK-NEP-1; assay: cells; assay type: functional, cell-based, Homo sapiens; details: Homo sapiens, SK-NEP-1;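 note: growth inhibition of human SK-NEP-1 cells, read out by a cell viability assay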
Description: SANGER: Inhibition of human SK-NEP-1 cell growth in a cell viability assay.

Q: Which IC50 does the source give for `Nc1ccccc1NC(=O)c1ccc(CNC(=O)OCc2cccnc2)cc1` [ENTINOSTAT] here?
A: 1.2 µM

tested on: SW872; assay: cells; assay type: functional, cell-based, Homo sapiens; details: Homo sapiens, SW872;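 note: growth inhibition of SW872 cells, read out by a viability assay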
Description: SANGER: Inhibition of human SW872 cell growth in a cell viability assay.

Q: Which IC50 does the source give for `Nc1ccccc1NC(=O)c1ccc(CNC(=O)OCc2cccnc2)cc1` [ENTINOSTAT] here?
A: 1.81 µM

tested on: A101D; assay: cells; assay type: functional, cell-based, Homo sapiens; details: Homo sapiens, A101D;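 note: growth inhibition of the cell line, measured with a viability assay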
Description: SANGER: Inhibition of human A101D cell growth in a cell viability assay.

Q: With `Nc1ccccc1NC(=O)c1ccc(CNC(=O)OCc2cccnc2)cc1` [ENTINOSTAT] as the compound, how does the IC50 read?
A: 0.403 µM

tested on: A4-Fuk; assay: cells; assay type: functional, cell-based, Homo sapiens; details: Homo sapiens, A4-Fuk;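 note: growth inhibition of A4-Fuk cells, read out by a cell viability assay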
Description: SANGER: Inhibition of human A4-Fuk cell growth in a cell viability assay.

Q: Which IC50 does the source give for `Nc1ccccc1NC(=O)c1ccc(CNC(=O)OCc2cccnc2)cc1` [ENTINOSTAT] here?
A: 1.15 µM

tested on: ATN-1; assay: cells; assay type: functional, cell-based, Homo sapiens; details: Homo sapiens, ATN-1;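 note: growth inhibition of human ATN-1 cells, read out with a cell viability assay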
Description: SANGER: Inhibition of human ATN-1 cell growth in a cell viability assay.

Q: For `Nc1ccccc1NC(=O)c1ccc(CNC(=O)OCc2cccnc2)cc1` [ENTINOSTAT], which IC50 is on record?
A: 0.306 µM

tested on: BV-173; assay: cells; assay type: functional, cell-based, Homo sapiens; details: Homo sapiens, BV-173
Description: SANGER: Inhibition of human BV-173 cell growth in a cell viability assay.

Q: How did the IC50 turn out when `Nc1ccccc1NC(=O)c1ccc(CNC(=O)OCc2cccnc2)cc1` [ENTINOSTAT] was run?
A: 0.371 µM

tested on: TE-12; assay: cells; assay type: functional, cell-based, Homo sapiens; details: Homo sapiens, TE-12;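 note: growth inhibition of TE-12 cells, read out by a cell viability assay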
Description: SANGER: Inhibition of human TE-12 cell growth in a cell viability assay.

Q: For `Nc1ccccc1NC(=O)c1ccc(CNC(=O)OCc2cccnc2)cc1` [ENTINOSTAT], which IC50 is on record?
A: 3.52 µM

tested on: TE-8; assay: cells; assay type: functional, cell-based, Homo sapiens; details: Homo sapiens, TE-8;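 note: growth inhibition of TE-8 cells, measured with a cell viability readout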
Description: SANGER: Inhibition of human TE-8 cell growth in a cell viability assay.

Q: For `Nc1ccccc1NC(=O)c1ccc(CNC(=O)OCc2cccnc2)cc1` [ENTINOSTAT], which IC50 is on record?
A: 0.369 µM

tested on: U-87 MG; assay: cells; assay type: functional, cell-based, Homo sapiens, U-87MG ATCC; details: Homo sapiens, U-87 MG;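 note: growth inhibition of the cells measured with a viability assay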
Description: SANGER: Inhibition of human U-87-MG cell growth in a cell viability assay.

Q: How did the IC50 turn out when `Nc1ccccc1NC(=O)c1ccc(CNC(=O)OCc2cccnc2)cc1` [ENTINOSTAT] was run?
A: 3.04 µM

tested on: CAS-1; assay: cells; assay type: functional, cell-based, Homo sapiens; details: Homo sapiens, CAS-1;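 note: growth inhibition of CAS-1 cells, measured with a cell viability assay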
Description: SANGER: Inhibition of human CAS-1 cell growth in a cell viability assay.

Q: With `Nc1ccccc1NC(=O)c1ccc(CNC(=O)OCc2cccnc2)cc1` [ENTINOSTAT] as the compound, how does the IC50 read?
A: > 5 µM

tested on: COLO-320-HSR; assay: cells; assay type: functional, cell-based, Homo sapiens; details: Homo sapiens, COLO-320-HSR;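 note: growth inhibition of COLO-320-HSR cells, determined with a cell viability assay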
Description: SANGER: Inhibition of human COLO-320-HSR cell growth in a cell viability assay.

Q: Which IC50 does the source give for `Nc1ccccc1NC(=O)c1ccc(CNC(=O)OCc2cccnc2)cc1` [ENTINOSTAT] here?
A: 2.86 µM

tested on: COLO-668; assay: cells; assay type: functional, cell-based, Homo sapiens; details: Homo sapiens, COLO-668
Description: SANGER: Inhibition of human COLO-668 cell growth in a cell viability assay.

Q: With `Nc1ccccc1NC(=O)c1ccc(CNC(=O)OCc2cccnc2)cc1` [ENTINOSTAT] as the compound, how does the IC50 read?
A: > 5 µM
